Reference: patent publication US20180133148A1, “Degradable Microparticles for Protein and Small Molecule Delivery” (Georgia Tech Research Corporation, priority 2016, published 2018)

What was measured:
[1] = FTY720 loading and release from degradable heparin-based MPs (plate reader); type: physicochemical
Experimental: FTY720 was loaded onto degradable heparin-based MPs. The amount of FTY720 that was loaded onto the MPs was then assayed via plate reader. In three separate groups, additional amounts of FTY720, i.e. 5 μg, 10 μg and 20 μg, were then added. […] For each of the three separate groups, the extent of FTY720 release was assayed via plate reader each day over 7 days. […] The black line refers to the batch with 20 μg added. The dark blue line refers to the batch with 10 μg added. The light blue line refers to the batch with 5 μg added.

[2] = tested on: plasmin; assay: Plasmin inhibition assay (TSG-6 anti-plasmin activity); type: biochemical
Experimental: To assess TSG-6 bioactivity after release from MPs, the plasmin inhibition assay protocol was followed with day 1 TSG-6 release supernatant (11 ng/mL) and compared to a soluble TSG-6 control at the same concentration (11 ng/mL); n=3-5.
Without wishing to be bound by theory, it may be that the sulfate groups removed, the N sulfate group for Hep^−N and the N and […] for Hep−, are necessary for complete heparin binding to TSG-6 and the subsequent enhancement of TSG-6 bioactivity.

[3] = tested on: articular cartilage; assay: Safranin-O histology of tibiae, medial meniscal transection model; type: in vivo, Sprague-Dawley rats; settings: 3 weeks following MMT injury
Source text: Medial meniscal transection (MMT) injury was induced using a similar method to previously established protocols. Willett N. J. et al., Arthritis Res Ther. 2014; 16(1):R47. Male Sprague-Dawley rats (250-300 g initial weight and 8-10 weeks old) were used in accordance with protocols approved by the Georgia Institute of Technology Institutional Animal Care and Use Committee. Prior to surgery animals were anesthetized by 5% isoflurane (Isothesia), followed by 2-3% isoflurane during surgery and were administered sustained release buprenorphine as an analgesic. Next, a small incision was made through the skin on the medial aspect of the left femoral-tibial joint. The medial collateral ligament was exposed by blunt dissection and transected to visualize the joint space and medial meniscus. The meniscus was then transected completely at its narrowest point. The skin was sutured with 4.0 silk sutures (Ethicon) and then closed using wound clips.
For TSG-6 loaded MP treatment, MPs were loaded as described above but 3.6 mg MPs were resuspended in a total volume of 50 μL sterile 0.1 wt % BSA PBS solution and subsequently loaded into sterile syringes. 1, 7, and 15 days following MMT injury, MPs were delivered via intra-articular injection through the infrapatellar ligament and into the stifle joint of the left leg. For soluble TSG-6 controls, 16.7 μg TSG-6 was dissolved in a total volume of 50 μL sterile 0.1 wt % BSA PBS solution, loaded into sterile syringes, and delivered using the same method as TSG-6 loaded MPs. Overall, in vivo experimental groups included TSG-6 loaded MPs (18 μg TSG-6 loaded onto 10.8 mg MPs delivered over 3 time points; n=3), soluble TSG-6 (50 μg TSG-6 delivered over 3 time points; n=3) or injury only (no TSG-6 or MPs; n=4). Contralateral tibiae served as uninjured controls.
Following μCT, tibiae were decalcified in Cal-Ex II (Fisher) for 10 days, then processed for histology sectioning as described previously. Tellier L. E. et al. Localized SDF-1 Delivery Increases Pro-Healing Bone Marrow-Derived Cells in the Supraspinatus Muscle Following Severe Rotator Cuff Injury. […]

[4] = tested on: articular cartilage of the medial tibial plateau; assay: EPIC-μCT of tibial articular cartilage, medial meniscal transection model; type: in vivo, Sprague-Dawley rats
[5] = TSG-6 with soluble heparin derivative, or TSG-6 alone
[6] = 21 days following MMT injury, compared to uninjured control

Row | Molecule | Loading efficiency of FTY720 ([1]; of the originally added amount of FTY720, 5, 10, 20 μg added) | Total amount of FTY720 released from MPs ([1]; over 7 days, dependent on amount originally added) | Plasmin activity compared to plasmin control [2, 5] | Effect on TSG-6 anti-plasmin activity compared to TSG-6 alone ([2]; soluble heparin derivatives, in words) | Improvement of cartilage degeneration following injury [3] | Proteoglycan loss (Safranin-O stained sections) [3] | Safranin-O staining of GAG within cartilage [3] | Plasmin activity compared to plasmin control ([2]; day 1 release supernatant or soluble control, 11 ng/mL TSG-6) | Cartilage fibrillation (contrast-enhanced μCT imaging) ([4]; 3 weeks following MMT injury) | Cartilage attenuation [4, 6] | Cartilage thickness [4, 6] | Cartilage volume [4, 6]
1 | CCCCCCCCc1ccc(CCC(N)(CO)CO)cc1 [FTY720] | 35-80% | 0.5 to 5 µg |  |  |  |  |  |  |  |  |  | 
2 | fully desulfated heparin [Hep−, reference compound] |  |  | 69.6±1.2% | no significant effect |  |  |  |  |  |  |  | 
3 | soluble TSG-6: human TNF-α-stimulated gene-6, positively charged 35 kDa protein (R&D Systems) |  |  | 74.6±0.2% |  | unable to improve cartilage degeneration | proteoglycan loss is observed | Less intense safranin-O staining was observed | 96.4±3.1% | cartilage fibrillation is present | 1.6±0.2 × | 1.5±0.2 × | 1.9±0.5 ×
